Results taken from publication PMC13053910, “Covalent Protein Inhibitors via Tyrosine and Tryptophan Conjugation with Cyclic Imine Mannich Electrophiles” (Angewandte Chemie (International Ed. in English), 2026).
Values belong to the molecule of their own block, whether it stands above or below them.

Experiments:
[1] = Reaction of cyclic imine Mannich or sulfur fluoride electrophiles with Ac-Tyr-NHMe (HPLC, LC/MS); assay type: physicochemical
Protocol: To identify an appropriate warhead, we synthesized or purchased a collection of cyclic imines and incubated them with N‐acetyl‐L‐tyrosine methylamide (Ac‐Tyr‐NHMe) in PBS pH 7 at 37 °C (Table 1). The reactivity was quantified by UV integration on HPLC with LC/MS confirmation of product identity (Figure S1). […] The hydrolysis kinetics of imine 2 were characterized at pD 6 and 7.5 by NMR (Figure S3). […] The Mannich reaction mechanism involves a charged iminium intermediate, and the reaction is frequently catalyzed by Bronsted acids.^[ [36], [37] ^]
(§1) Figure 2 Second‐order rate constants for select cyclic imines and a sulfonyl fluoride with aromatic nucleophiles. Reactions were conducted under pseudo‐first‐order conditions with an excess of one reactant, as indicated. The reduction in the concentration of the limiting reactant was measured at various time points by HPLC analysis.
Figure S2: Second order rate constant determination. Reaction of (A) imine 1 (5 mM) with N-Ac-Tyr-NHMe (100 mM) at 37 °C or (B) at R.T. (C) imine 2 (5 mM) with N-Ac-Tyr-NHMe (100 mM) at 37 °C (D) imine 1 (5 mM) with indole-3-butyrate (100 mM) at 37 °C (E) imine 1 (10 mM) with 1 mM 1H-pyrrole-1-propionate (F) iminium 5 (5 mM) with N-Ac-Tyr-NHMe (100 mM) at 37 °C (G) imine 4 (5 mM) with N-Ac-Tyr-NHMe (100 mM) at 37 °C. (H) imine 11 (5 mM) with N-Ac-Tyr-NHMe (100 mM) at 37 °C. (I) imine 13 (5 mM) with N-Ac-Tyr-NHMe (100 mM) at 37 °C.
5.1 General procedure for determination of second order rate constants N-acetyl-l-tyrosine methyl amide (Ac-Tyr-NHMe) (100 mM) was incubated with 5 mM imine 1 in PBS (pH 7) at 37 °C or R.T..

[2] = Stability in bovine serum-containing cell media (LC/MS); assay type: in vitro ADME; settings: 20 µM, DMEM with 15% FBS, 24 h, 37 °C
Protocol: (§2) To be suitable for chemical probe and therapeutic applications, the warhead should show good stability. In general, we found the iminolactam warheads to be quite stable. Compound 1 was stable as a solid at room temperature for over 3 months. […] After 24‐h in aqueous buffer, compounds were treated with sodium cyanoborohydride. […] The synthetic strategy of in situ formation of imines by periodate treatment was pursued to avoid concerns of warhead reactivity with the ligand itself to either the peptide backbone or the phenoxyphenyl aryl group. This appears to have been unnecessary, at least for the iminolactam warhead. […] The more reactive ester imine may be forming semi‐stable cyclized products with the amide backbone, which have been observed previously with peptide aldehydes.^[ [51], [52] ^] Due to these issues, we selected compound P1b for further characterization.
Figure S17. Stability of cyclic imine inhibitors to serum-containing cell culture media. […] The protein fraction was then precipitated with addition of 2 volumes of 1:1 EtOH:acetonitrile and overnight incubation at -20 °C. Samples were centrifuged 16,000 g for 30 minutes. Supernatants were filtered through a 0.5 micro spin filter and evaporated with a speed vacuum. The compounds were resuspended in PBS and analzyed by LC/MS. […] Overlaid spectra of UV at 215 nm are shown and are representative of 3 replicates.

[3] = Stability of warheads and inhibitors (solid, PBS, hydrolysis); assay type: physicochemical
Protocol: as §2

eDHFR wt = molecular target: T1, eDHFR wt (Escherichia coli, UniProt P0ABQ4); assay: Covalent labeling of eDHFR wild type by LC/MS; assay type: binding, E. coli; settings: 10 µM protein, 10 µM compound, overnight, 37 °C
T1 construct: made in house; host or cells: E. coli (BL21 CodonPlus RIL or Rosetta 2), pET-28b(+)

eDHFR L28Y = molecular target: T2, eDHFR L28Y (Escherichia coli, UniProt P0ABQ4, L28Y); assay: Covalent labeling of eDHFR L28Y by LC/MS; assay type: binding, E. coli
T2 construct: made in house; host or cells: E. coli (BL21 CodonPlus RIL or Rosetta 2), pET-28b(+)
Excerpt: (§3) Similarly, we prepared eDHFR tyrosine and tryptophan mutants at position 28 to assess labeling with TMP‐Im (Figure 3b). […] We conducted trypsin digestion of the labeled L28Y protein and localized the modification to the intended tyrosine by MS/MS fragmentation (Figure S9A). To assess selectivity over thiols, we tested labeling of the cysteine mutant. […] This labeling was reversed with GSH treatment, which is consistent with the reversibility of thioaminal formation (Figure S10).
(§4) Reactions with thiol mutant L28C were conducted in the presence of 5 mM glutathione and 5 mM TCEP. The observed mass differences of labeled and unlabeled proteins agree with the expected mass change of 428 Da.
Figure S10. Ligand directed labeling in the presence of thiols. […] B) TMP-Im (10 µM) was incubated with eDHFR L28C (10 µM) overnight in the absence (left and center) or presence of 5 mM GSH with 5 mM TCEP. For the center panel, after the labeling reaction, GSH (5 mM) was added and allowed to incubated overnight.

eDHFR L28C = molecular target: T3, eDHFR L28C (Escherichia coli, UniProt P0ABQ4, L28C); assay: Covalent labeling of eDHFR L28C by LC/MS; assay type: binding, E. coli
T3 construct: made in house; host or cells: E. coli (BL21 CodonPlus RIL or Rosetta 2), pET-28b(+)
Excerpt: as §3, §4
Figure S10. Ligand directed labeling in the presence of thiols. A) TMP-Im (10 µM) was incubated with eDHFR L28Y (10 µM) overnight at RT in the absence (left) or presence of 5 mM GSH with 5 mM TCEP. B) TMP-Im (10 µM) was incubated with eDHFR L28C (10 µM) overnight in the absence (left and center) or presence of 5 mM GSH with 5 mM TCEP. For the center panel, after the labeling reaction, GSH (5 mM) was added and allowed to incubated overnight.

eDHFR L28W = molecular target: T4, eDHFR L28W (Escherichia coli, UniProt P0ABQ4, L28W); assay: Covalent labeling of eDHFR L28W by LC/MS; assay type: binding, E. coli; settings: 10 µM protein, 10 µM compound, overnight, 37 °C
T4 construct: made in house; host or cells: E. coli (BL21 CodonPlus RIL or Rosetta 2), pET-28b(+)
Excerpt: as §3, §4

[4] = Reaction of imine 1 with 1H-pyrrole-1-propionate (pyrrolated lysine mimic), rate constant; assay type: physicochemical; settings: imine 10 mM, 1 mM 1H-pyrrole-1-propionate
Protocol: as §1, with “analysis. Rates of imine 1 with N‐Ac‐Tyr‐NMe, indole‐3‐butyric acid, and 1H‐pyrrole‐1‐propionic acid and compounds 4, 11, and 13 with N‐Ac‐Tyr‐NMe were measured. […]” for “analysis.”
(§5) To assess the selectivity for tyrosine side chains, we tested the reactivity of 1 with additional compounds, including β‐mercaptoethanol, imidazole, isopropanol, n‐butylamine, propionic acid, 3‐methyl indole, and N‐ethyl pyrrole. […] While partially stable under LC/MS conditions, the N,S‐thioaminal product is readily reversible.^[ [41] ^] […] We determined a second‐order rate constant of 5.9 × 10^−2 M^−1 s^−1 for the reaction of 1 with 1H‐pyrrole‐1‐propionate (Figures 2 and S2). […]

CBX8 chromodomain (ChD) = molecular target: T5, CBX8 chromodomain (ChD) (Homo sapiens, UniProt Q9HC52); assay: Non-directed labeling of CBX8 ChD with cyclic imine 1 (mass spectrometry); assay type: binding; settings: 1 (50 µM), CBX8 ChD (50 µM), 10 h
T5 construct: CBX chromodomain constructs (addgene plasmid #25158 (CBX2), and #62514 (CBX8, provided by Cheryl Arrowsmith)); 6His; host or cells: E. coli (BL21 CodonPlus RIL or Rosetta 2)
T5 sequence (Q9HC52 11-69 limits assumed): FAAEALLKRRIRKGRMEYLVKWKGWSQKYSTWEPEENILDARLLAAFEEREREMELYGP
Excerpt: Our interest in this chemistry was to improve inhibitors of the chromodomains (ChD) of the CBX family of epigenetic proteins, which have proven challenging to inhibit selectively or with drug‐like small molecules.^[ [47] ^] The CBX ChDs bind a trimethylated lysine (Kme3) side chain on histone tails via cation‐pi interactions with the aromatic cage in the ChD. Our initial hypothesis was that the aromatic cage tryptophan residues would show increased reactivity to Mannich electrophiles, as they function naturally to donate electron density to the electron‐poor methyl groups of Kme3. To test this, 1 (50 µM) was incubated for 10 h with the CBX8 chromodomain (ChD) (50 µM), and labeling was assessed by mass spectrometry (Figure S11).
Figure S11. […] Cyclic imine 1 ([…]) was incubated with 50 µM CBX8 ChD in PBS (pH=7, 0.02% Tween20) buffer at R.T. for 16 hours overnight. Labeled protein was precipitated using cold MeOH:CHCl3 at the ratio of MeOH:CHCl3:Protein = 3:0.5:1, followed with two methanol washes. Protein pellet was air dried after the last wash resuspensed in water containing 0.1% formic acid and 100 mM ammonium acetate. Protein labeling was characterized by LC/MS (Unmodified CBX8 control is indicated in red, and CBX8 labeled with cyclic imine is indicated in green).

[5] = Reaction of imine 1 with indole-3-butyrate (tryptophan mimic), rate constant; assay type: physicochemical; settings: imine 5 mM, indole-3-butyrate 100 mM, 37 °C
Protocol: as §1, with “analysis. Rates of imine 1 with N‐Ac‐Tyr‐NMe, indole‐3‐butyric acid, and 1H‐pyrrole‐1‐propionic acid and compounds 4, 11, and 13 with N‐Ac‐Tyr‐NMe were measured. […]” for “analysis.”
as §5

[6] = electrophile 5 mM, N‐acetyl‐l‐tyrosine methyl amide 100 mM, PBS pH 7, 37 °C

Molecule: COc1cc(Cc2cnc(N)nc2N)cc(OC)c1OCCCCN1CCN=CC1=O [TMP‐Im]
stability in bovine serum‐containing cell media [2]: minimal loss of compounds to the precipitated protein fraction or degradation
stability in bovine serum‐containing cell media ([2]; listed as TMP-Im): no degradation or loss to the protein fraction
stability to long‐term incubation in PBS ([3]; 24 h in aqueous buffer, then sodium cyanoborohydride, mass spectrometry): stability over the 24 h
covalent labeling of eDHFR wild type (eDHFR wt): no labeling
covalent labeling of eDHFR L28Y (eDHFR L28Y; 10 µM protein, 10 µM compound, overnight, 37 °C): covalent labeling
effect of GSH on labeling of eDHFR L28Y (eDHFR L28Y; presence of 5 mM GSH): only a slight reduction in reaction conversion
labeling of eDHFR L28C cysteine mutant (eDHFR L28C; absence of additional thiols, TCEP as reductant): A small amount of labeling
labeling of eDHFR L28C cysteine mutant (eDHFR L28C; in the presence of 5 mM glutathione (GSH) and 5 mM TCEP): no detectable labeled protein
covalent labeling of eDHFR L28W (eDHFR L28W): covalent labeling

Molecule: O=C1C=NC2CCCCC2N1 (stereo not shown) [compound 1]
second‐order rate constant k2 with 1H‐pyrrole‐1‐propionate [4]: 0.059 M⁻¹ s⁻¹
stable as a solid at room temperature ([3]; solid, room temperature): over 3 months
reactivity (t1/2) [1, 6]: 8 ± 0.3 h
second‐order rate constant k2 with N‐Ac‐Tyr‐NHMe ([1]; pseudo‐first‐order conditions, PBS pH 7, 37 °C): 0.00024 M⁻¹ s⁻¹
labeling of CBX8 ChD by imine alone (CBX8 chromodomain (ChD)): distribution of unlabeled, singly, doubly, and triply labeled protein indicative of random labeling
second‐order rate constant k2 with indole‐3‐butyrate [5]: 0.00011 M⁻¹ s⁻¹

Molecule: O=C1C=N[C@H]2CCCC[C@@H]2O1 [compound 2]
reactivity (t1/2) ([1]; electrophile 5 mM, Ac-Tyr-NHMe 100 mM, PBS pH 7, 37 °C, competing hydrolysis): ∼40 mins ^b)

Molecule: O=C(O)c1ccc(OS(=O)(=O)F)cc1 [compound 14, reference compound]
reactivity (t1/2) [1, 6]: ∼48 h

Further lines, results first:

reactivity (t1/2) ([1]; buffer, pH 7): 6.1 ± 0.2 h
Molecule: 2-hydroxyquinoxaline [compound 4]

reactivity (t1/2) [1, 6]: 2.4 ± 0.1 h
Molecule: O=S1(=O)N=Cc2ccccc21 [compound 11]
